Biological target: T1, carbonic anhydrase (CA) from bovine erythrocytes (Bos taurus, UniProt P00921)
T1 construct: gene CA2; native full-length enzyme from bovine erythrocytes, N-terminal Ser1, 18 Lys
Assay: UV monitoring of 4-nitrophenyl acetate hydrolysis (esterase activity)
Format: biochemical
Settings: read-out: apparent IC50

T1 sequence (P00921 2-260): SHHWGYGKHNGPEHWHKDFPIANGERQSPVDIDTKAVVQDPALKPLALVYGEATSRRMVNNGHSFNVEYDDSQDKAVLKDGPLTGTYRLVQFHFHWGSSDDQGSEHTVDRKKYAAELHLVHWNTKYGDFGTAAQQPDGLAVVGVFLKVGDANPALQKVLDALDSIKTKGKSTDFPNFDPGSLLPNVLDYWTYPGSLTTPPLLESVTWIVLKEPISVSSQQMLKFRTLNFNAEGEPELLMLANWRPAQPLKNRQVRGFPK

O=Cc1c(F)c(F)c(SC[C@H](NC(=O)OCc2ccccc2)C(=O)O)c(F)c1F [A8]
IC50: ~1 µM
